By IC50 is commonly meant the point on the concentration scale where inhibition reaches its midpoint. Low readings indicate higher potency, high ones lower potency.

Molecules are shown by their SMILES.

IC50 data for 2 compounds are collected here from ChEMBL document CHEMBL1143953, “Novel 2-phenylquinolin-7-yl-derived imidazo[1,5-a]pyrazines as potent insulin-like growth factor-I receptor (IGF-IR) inhibitors” (Bioorg Med Chem, 2008).

The target in assay [1] is Insulin-like growth factor 1 receptor (Homo sapiens, UniProt P08069).
Description: Inhibition of human recombinant full length IGF1R expressed in mouse 3T3 cells
Assay [2] deals with Cytochrome P450 3A4 (Homo sapiens, UniProt P08684). The experiment in a line: Inhibition of CYP3A4. It counts as ADME.
Sequence of Cytochrome P450 3A4 (P08684 whole entry): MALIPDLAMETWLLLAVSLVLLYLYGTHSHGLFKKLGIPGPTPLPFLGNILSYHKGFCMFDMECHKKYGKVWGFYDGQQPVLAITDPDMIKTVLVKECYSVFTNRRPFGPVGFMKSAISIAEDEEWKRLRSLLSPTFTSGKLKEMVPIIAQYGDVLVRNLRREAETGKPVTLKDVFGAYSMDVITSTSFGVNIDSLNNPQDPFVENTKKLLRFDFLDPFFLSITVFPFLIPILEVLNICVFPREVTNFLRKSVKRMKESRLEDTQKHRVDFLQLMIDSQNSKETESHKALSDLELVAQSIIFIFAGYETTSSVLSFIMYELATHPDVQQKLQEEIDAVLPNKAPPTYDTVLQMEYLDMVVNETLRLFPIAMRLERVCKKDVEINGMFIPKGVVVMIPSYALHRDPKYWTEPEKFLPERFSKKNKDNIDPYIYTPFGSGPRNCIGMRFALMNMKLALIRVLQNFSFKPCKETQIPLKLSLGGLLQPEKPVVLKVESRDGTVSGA

Sequence of Insulin-like growth factor 1 receptor (P08069 31-736 limits assumed): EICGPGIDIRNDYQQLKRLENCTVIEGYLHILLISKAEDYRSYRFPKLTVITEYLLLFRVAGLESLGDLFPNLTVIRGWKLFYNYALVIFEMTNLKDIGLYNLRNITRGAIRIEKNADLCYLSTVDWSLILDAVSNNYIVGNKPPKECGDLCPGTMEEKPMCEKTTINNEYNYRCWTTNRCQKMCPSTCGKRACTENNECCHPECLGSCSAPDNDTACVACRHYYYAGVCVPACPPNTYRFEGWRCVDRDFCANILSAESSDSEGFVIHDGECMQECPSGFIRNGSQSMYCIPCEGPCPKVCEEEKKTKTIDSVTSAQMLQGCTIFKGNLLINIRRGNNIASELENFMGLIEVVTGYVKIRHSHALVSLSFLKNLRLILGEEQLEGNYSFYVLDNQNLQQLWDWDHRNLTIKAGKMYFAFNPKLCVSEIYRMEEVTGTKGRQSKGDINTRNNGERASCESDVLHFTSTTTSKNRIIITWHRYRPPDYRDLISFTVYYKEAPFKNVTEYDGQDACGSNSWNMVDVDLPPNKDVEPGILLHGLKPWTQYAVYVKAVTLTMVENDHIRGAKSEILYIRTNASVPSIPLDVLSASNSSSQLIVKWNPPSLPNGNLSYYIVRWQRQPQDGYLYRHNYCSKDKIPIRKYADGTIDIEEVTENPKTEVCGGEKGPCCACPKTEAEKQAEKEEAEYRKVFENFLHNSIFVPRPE
Sequence of Insulin-like growth factor 1 receptor (P08069 741-1367 limits assumed): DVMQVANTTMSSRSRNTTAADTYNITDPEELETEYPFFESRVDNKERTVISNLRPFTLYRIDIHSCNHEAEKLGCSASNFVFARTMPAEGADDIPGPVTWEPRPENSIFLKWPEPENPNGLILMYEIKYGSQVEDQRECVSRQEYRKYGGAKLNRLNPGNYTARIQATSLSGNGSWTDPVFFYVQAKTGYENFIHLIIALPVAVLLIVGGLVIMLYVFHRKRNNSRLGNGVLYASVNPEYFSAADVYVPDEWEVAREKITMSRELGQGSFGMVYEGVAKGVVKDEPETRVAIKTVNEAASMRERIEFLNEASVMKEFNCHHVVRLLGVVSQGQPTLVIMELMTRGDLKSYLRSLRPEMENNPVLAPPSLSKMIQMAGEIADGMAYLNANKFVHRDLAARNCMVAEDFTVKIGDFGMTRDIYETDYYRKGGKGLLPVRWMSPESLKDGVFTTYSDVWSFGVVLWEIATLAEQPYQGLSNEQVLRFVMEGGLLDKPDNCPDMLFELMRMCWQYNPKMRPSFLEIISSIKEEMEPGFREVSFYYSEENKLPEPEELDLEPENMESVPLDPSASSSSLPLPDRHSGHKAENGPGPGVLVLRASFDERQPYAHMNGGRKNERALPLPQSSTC

Take `Nc1nccn2c(C3CCC3)nc(-c3ccc4cccnc4c3)c12`: the IC50 in assay [1] is more than 10 µM.
For the compound `Nc1nccn2c1c(-c1ccc3ccc(-c4ccccc4)nc3c1)nc2[C@H]1C[C@H](CN2CCC2)C1`, the values for the 50% inhibitory concentration (IC50) in assay [2] and in assay [1] were 17 µM and 0.042 µM, respectively.
